According to publication PMC11178545, “Alkynyl nicotinamides show antileukemic activity in drug-resistant acute myeloid leukemia” (The Journal of Clinical Investigation, 2024):

Molecular target: T1, ABL1 nonphosphorylated (Homo sapiens, UniProt P00519)
T1 construct: purchased DiscoverX (DiscoveRx) KINOMEScan
Test: KINOMEScan binding assay, nonphosphorylated ABL1
Experimental: In vitro inhibition of phosphorylated ABL1 is often used as a surrogate to determine if a kinase inhibitor is Type I or Type II without the need for crystal structures ([18]). […] In this regard, we performed binding assays using the KINOMEScan platform (DiscoveRx) and commercially available FLT3 mutants; the Kd for most of the tested proteins was in the sub-to-low nanomolar range with the exception of FLT3^ITD–D835Y (Table 2).
In vitro kinase assays were performed at DiscoverX. Briefly, compounds that bind the kinase active site prevent kinase binding to an immobilized ligand and will reduce the amount of kinase captured on solid support. […] Kinases used in the panel are tagged with DNA barcodes. Screening “hits” are identified by measuring the amount of kinase still bound to the immobilized ligand after compound treatment by using a quantitative, precise, and ultra-sensitive qPCR method that detects the associated DNA label. In a similar manner, KDs for test compound–kinase interactions were calculated by measuring the amount of kinase captured on the solid support as a function of the test compound concentration. Residence time determination assays were conducted by Enzymlogic.

T1 sequence (P00519 whole entry): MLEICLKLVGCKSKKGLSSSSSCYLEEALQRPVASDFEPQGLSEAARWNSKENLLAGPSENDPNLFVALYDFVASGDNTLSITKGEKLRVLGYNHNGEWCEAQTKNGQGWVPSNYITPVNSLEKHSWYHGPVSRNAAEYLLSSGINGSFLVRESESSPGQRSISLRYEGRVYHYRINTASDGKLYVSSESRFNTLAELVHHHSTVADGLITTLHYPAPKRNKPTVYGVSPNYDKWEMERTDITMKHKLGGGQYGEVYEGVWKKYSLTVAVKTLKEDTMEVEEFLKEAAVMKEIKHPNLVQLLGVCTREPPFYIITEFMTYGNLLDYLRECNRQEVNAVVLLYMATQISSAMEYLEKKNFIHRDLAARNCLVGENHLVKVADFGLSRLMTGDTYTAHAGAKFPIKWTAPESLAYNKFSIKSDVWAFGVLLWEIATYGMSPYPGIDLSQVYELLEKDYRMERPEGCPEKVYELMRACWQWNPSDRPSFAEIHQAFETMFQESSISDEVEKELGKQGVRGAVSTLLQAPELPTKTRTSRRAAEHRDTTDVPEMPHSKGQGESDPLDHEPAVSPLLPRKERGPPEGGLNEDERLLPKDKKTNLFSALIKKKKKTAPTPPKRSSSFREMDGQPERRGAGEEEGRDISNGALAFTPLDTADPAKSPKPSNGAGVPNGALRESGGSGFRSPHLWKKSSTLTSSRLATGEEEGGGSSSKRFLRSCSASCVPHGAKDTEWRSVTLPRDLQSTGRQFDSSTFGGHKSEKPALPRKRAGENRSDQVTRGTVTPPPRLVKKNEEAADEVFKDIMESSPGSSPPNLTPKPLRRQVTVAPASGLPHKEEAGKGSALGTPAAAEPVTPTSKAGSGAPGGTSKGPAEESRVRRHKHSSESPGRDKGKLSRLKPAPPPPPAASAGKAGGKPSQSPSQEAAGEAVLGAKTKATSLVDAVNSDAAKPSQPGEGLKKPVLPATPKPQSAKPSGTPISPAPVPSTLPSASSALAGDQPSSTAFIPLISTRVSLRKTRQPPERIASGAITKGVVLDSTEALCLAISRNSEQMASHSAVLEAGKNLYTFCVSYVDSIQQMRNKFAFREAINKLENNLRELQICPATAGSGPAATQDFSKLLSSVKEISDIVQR

CN1CCN(Cc2ccc(NC(=O)c3cncc(C#Cc4cnc5cccnn45)c3)cc2C(F)(F)F)CC1 [HSN748] gave a Kd (read-out: Kd, nonphosphorylated form of ABL) of 0.29 nM and a Hill slope (variable slope best fit) of −1.328.
